Read-outs that look alike come from different tables or passages of the source.
Experiments:
p97 = p97 (Homo sapiens, UniProt P55072); assay: p97 ATPase assay (Kinase Glo Plus; biomol green for compounds that interfere with luciferase); format: biochemical
How it was run: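 Purified p97 in 50 mM Tris pH 7.4, 20 mM MgCl2, 1 mM EDTA, 0.5 mM TCEP, preincubated 10 min with compound (0–30 μM, triplicate), then ATP 60 min at room temperature. Remaining ATP read by Kinase Glo Plus luminescence, or biomol green at 630 nm for luciferase-interfering compounds; % activity versus DMSO and no-enzyme controls, mean ± SE.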

[1] = system: p97-dependent Ub^G76V-GFP degradation in HeLa cells; assay: Ub^G76V-GFP degradation (turn-over) assay; format: cell-based, human; details: Homo sapiens, HeLa
How it was run: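 HeLa cells expressing Ub^G76V-GFP were imaged, and mean GFP intensity per cell area was taken over 300-500 cells, background-subtracted and normalized to DMSO-treated basal intensity. The degradation rate constant k with compound is expressed as percent of the DMSO control k.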

[2] = purified p97, ATP, 60 min room temperature, mean +/- standard error
[3] = read-out: IC50 (μM) Ub^G76V-GFP turn over, Ub^G76V-GFP-expressing HeLa cells, degradation rate constant k from 90 to 180 min, mean +/- standard error
[4] = read-out: IC50 (μM) Ub^G76V-GFP turn over, p97-dependent Ub^G76V-GFP degradation turn-over assay

p97, sequence (P55072 2-806 limits assumed): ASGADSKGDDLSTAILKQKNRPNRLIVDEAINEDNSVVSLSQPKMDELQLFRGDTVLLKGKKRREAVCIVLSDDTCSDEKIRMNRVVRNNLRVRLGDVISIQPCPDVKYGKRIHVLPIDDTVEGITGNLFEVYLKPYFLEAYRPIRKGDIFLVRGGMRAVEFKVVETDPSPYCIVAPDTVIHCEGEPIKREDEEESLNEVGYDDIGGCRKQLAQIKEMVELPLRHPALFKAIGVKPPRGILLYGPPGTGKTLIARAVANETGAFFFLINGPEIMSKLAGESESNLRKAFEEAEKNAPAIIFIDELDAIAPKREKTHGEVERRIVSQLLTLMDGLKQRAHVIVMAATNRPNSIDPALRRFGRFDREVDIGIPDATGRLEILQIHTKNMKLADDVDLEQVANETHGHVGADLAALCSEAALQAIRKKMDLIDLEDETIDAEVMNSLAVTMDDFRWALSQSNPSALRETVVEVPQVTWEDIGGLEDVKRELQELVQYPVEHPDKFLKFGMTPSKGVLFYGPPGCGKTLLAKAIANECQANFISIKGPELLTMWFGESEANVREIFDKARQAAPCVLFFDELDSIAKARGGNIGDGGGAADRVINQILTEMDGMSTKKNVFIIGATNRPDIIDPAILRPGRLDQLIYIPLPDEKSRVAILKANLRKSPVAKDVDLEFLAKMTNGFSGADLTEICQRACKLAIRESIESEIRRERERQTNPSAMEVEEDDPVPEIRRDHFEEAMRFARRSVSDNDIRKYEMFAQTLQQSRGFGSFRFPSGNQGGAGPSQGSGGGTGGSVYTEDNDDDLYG

| Compound | IC50 (p97; [2]) [µM] | IC50 [1, 3] [µM] | IC50 (p97; p97 ATPase assay) [µM] | IC50 [1, 4] [µM] |
| --- | --- | --- | --- | --- |
| COc1ccccc1Nc1nc(NCc2ccccc2)c2ccccc2n1 [II-11] | 2.2 ± 0.9 | 11 ± 3 |  |  |
| Clc1cccc(Nc2nc(Nc3ccccc3)c3ccccc3n2)c1 [XXV-2] |  |  | 34 ± 16 | 12 ± 2 |
| Clc1ccccc1Nc1nc(NCc2ccccc2)c2ccccc2n1 [II-8] |  |  | 69 ± 25 | 13 ± 2 |
| COc1ccc2nc(NCc3ccccc3)nc(NCc3ccccc3)c2c1 [VI-14] | 7.5 ± 1.1 | 8.6 ± 1.7 |  |  |
| FC(F)(F)c1ccc2c(NCc3ccccc3)nc(NCc3ccccc3)nc2c1 [VI-7] | 9.1 ± 2 | 19 ± 1 |  |  |
| COc1ccc(-c2nc(NCc3ccc(Cl)cc3)c3ccccc3n2)cc1 [I-22] | 8 ± 2 | 9.3 ± 1 |  |  |
| Cc1cccc(CNc2nc(NCc3ccccc3)c3ccccc3n2)c1 [IV-11] | 2.3 ± 0.4 | 2.5 ± 0.5 |  |  |

— patent US20110288082A1, “METHODS AND COMPOSITIONS FOR INHIBITION OF THE TRANSITIONAL ENDOPLASMIC RETICULUM ATPASE” (priority 2010, published 2011)
